Data set [1] concerns A/H1N1 (strain A/Ned/378/05). Description: CPE reduction assay in MDCK cells, influenza A/H1N1. It is filed as cell-based. The following applies: Influenza A virus.
In data set [2] the test system is A/H3N2 (A/HK/7/87). Description: microbe, parasite or virus in culture. It is filed as cell-based, influenza A virus. The following applies: for EC50: Influenza A virus, H3N2, MDCK; for anti-A/H3N2 activity (in words): MDCK cells.
Data set [3] concerns IBV (B/Ned/537/05). Description: CPE reduction assay in MDCK cells, influenza B virus. It is filed as cell-based.
A short description of data set [4]: in vitro. As to conditions: dog.
Setting [5] is: read-out: Antiviral EC50 A/H1N1 CPE.
Where [6] appears, read: read-out: Antiviral EC50 A/H1N1 MTS.
Where [7] appears, read: read-out: Antiviral EC50 A/H3N2 CPE.
The mark [8] stands for this setting: read-out: Antiviral EC50 A/H3N2 MTS.
The mark [9] stands for this setting: read-out: Antiviral EC50 IBV CPE.
The mark [10] stands for this setting: read-out: Antiviral EC50 IBV MTS.

“Also recorded” adds a separate entry of the source. Read-outs that look alike come from different tables or passages of the source.

For the molecule `CC(C)(C)c1ccc(C(=O)NN2C(=O)CSC23CCCCC3)cc1` [Compound 1a, 4‐(tert‐Butyl)‐N‐(3‐oxo‐1‐thia‐4‐azaspiro[4.5]decan‐4‐yl)benzamide], the EC50 in data set [1] (setting [5]), in data set [1] (setting [6]), in data set [2] (setting [7]), in data set [2] (setting [8]), in data set [3] (setting [9]) and in data set [3] (setting [10]) was > 100 µM throughout. The CC50 in data set [4] is > 100 µM.

`CC1CCCC2(C1)SCC(=O)N2NC(=O)c1ccc(C(C)(C)C)cc1` (stereo not drawn) [Compound 1b, 4‐(tert‐Butyl)‐N‐(7‐methyl‐3‐oxo‐1‐thia‐4‐azaspiro[4.5]decan‐4‐yl)benzamide]: the EC50 in data set [1] (setting [5]), in data set [1] (setting [6]), in data set [2] (setting [7]), in data set [2] (setting [8]), in data set [3] (setting [9]) and in data set [3] (setting [10]) was > 100 µM each time. Further, the CC50 in data set [4] amounted to 11 µM.

As for `CC1CCC2(CC1)SCC(=O)N2NC(=O)c1ccc(C(C)(C)C)cc1` (stereo not drawn) [Compound 1c, 4‐(tert‐Butyl)‐N‐(8‐methyl‐3‐oxo‐1‐thia‐4‐azaspiro[4.5]decan‐4‐yl)benzamide], the EC50 in data set [1] (setting [5]), in data set [1] (setting [6]), in data set [2] (setting [7]), in data set [2] (setting [8]), in data set [3] (setting [9]) and in data set [3] (setting [10]) was > 100 µM each time. For the same molecule, the “anti-A/H3N2 activity (in words)” value in data set [2] was “inactive; also recorded: lacks anti‐A/H3N2 activity”. For the same molecule, the CC50 in data set [4] is > 100 µM.

With `CCC1CCC2(CC1)SCC(=O)N2NC(=O)c1ccc(C(C)(C)C)cc1` (stereo not drawn) [Compound 1d, 4‐(tert‐Butyl)‐N‐(8‐ethyl‐3‐oxo‐1‐thia‐4‐azaspiro[4.5]decan‐4‐yl)benzamide], the EC50 in data set [1] (setting [5]), in data set [1] (setting [6]), in data set [2] (setting [7]), in data set [2] (setting [8]), in data set [3] (setting [9]) and in data set [3] (setting [10]) was > 100 µM each time. For the same molecule, the CC50 in data set [4] was > 100 µM.

On to `CCCC1CCC2(CC1)SCC(=O)N2NC(=O)c1ccc(C(C)(C)C)cc1` (stereo not drawn) [Compound 1e, 4‐(tert‐Butyl)‐N‐(3‐oxo‐8‐propyl‐1‐thia‐4‐azaspiro[4.5]decan‐4‐yl)benzamide], for which the EC50 in data set [1] (setting [5]), in data set [1] (setting [6]), in data set [2] (setting [7]), in data set [2] (setting [8]), in data set [3] (setting [9]) and in data set [3] (setting [10]) was > 100 µM each time. Also, the CC50 in data set [4] was > 100 µM.

For the molecule `CC(C)(C)c1ccc(C(=O)NN2C(=O)CSC23CCC(C(C)(C)C)CC3)cc1` (stereo not drawn) [Compound 1f, 4‐(tert‐Butyl)‐N‐(8‐(tert‐butyl)‐3‐oxo‐1‐thia‐4‐azaspiro[4.5]decan‐4‐yl)benzamide], the EC50 in data set [1] (setting [5]), in data set [1] (setting [6]), in data set [2] (setting [7]), in data set [2] (setting [8]), in data set [3] (setting [9]) and in data set [3] (setting [10]) was > 100 µM each time. For the same molecule, the CC50 in data set [4] is > 100 µM.

Regarding `CC1SC2(CCCCC2)N(NC(=O)c2ccc(C(C)(C)C)cc2)C1=O` (stereo not drawn) [Compound 2a, 4‐(tert‐Butyl)‐N‐(2‐methyl‐3‐oxo‐1‐thia‐4‐azaspiro[4.5]decan‐4‐yl)benzamide], the EC50 in data set [1] (setting [5]), in data set [1] (setting [6]), in data set [2] (setting [7]), in data set [2] (setting [8]), in data set [3] (setting [9]) and in data set [3] (setting [10]) was > 100 µM in each case. Also, the “anti-A/H3N2 activity (in words)” value in data set [2] is given as “devoid of antiviral activity”. Further, the CC50 in data set [4] stood at 92 µM.

As to `CC1CCCC2(C1)SC(C)C(=O)N2NC(=O)c1ccc(C(C)(C)C)cc1` (stereo not drawn) [Compound 2b, 4‐(tert‐Butyl)‐N‐(2,7‐dimethyl‐3‐oxo‐1‐thia‐4‐azaspiro[4.5]decan‐4‐yl)benzamide], the EC50 in data set [1] (setting [5]), in data set [1] (setting [6]), in data set [2] (setting [7]), in data set [2] (setting [8]), in data set [3] (setting [9]) and in data set [3] (setting [10]) was > 100 µM in each case. Moreover, the “anti-A/H3N2 activity (in words)” value in data set [2] is reported as “devoid of antiviral activity”. The CC50 in data set [4] is 78 µM.

As to `CC1CCC2(CC1)SC(C)C(=O)N2NC(=O)c1ccc(C(C)(C)C)cc1` (stereo not drawn) [Compound 2c, 4‐(tert‐Butyl)‐N‐(2,8‐dimethyl‐3‐oxo‐1‐thia‐4‐azaspiro[4.5]decan‐4‐yl)benzamide], the EC50 in data set [1] (setting [5]) was > 100 µM; in data set [1] (setting [6]), > 100 µM; in data set [2] (setting [7]), 2.4 ± 0.8 µM; in data set [2] (setting [8]) it was 1.3 ± 0.3 µM; in data set [3] (setting [9]), > 100 µM; in data set [3] (setting [10]) it was > 100 µM. In data set [4], this molecule showed a CC50 of 39 ± 25 µM.

For the molecule `CCC1CCC2(CC1)SC(C)C(=O)N2NC(=O)c1ccc(C(C)(C)C)cc1` (stereo not drawn) [Compound 2d, 4‐(tert‐Butyl)‐N‐(8‐ethyl‐2‐methyl‐3‐oxo‐1‐thia‐4‐azaspiro[4.5]decan‐4‐yl)benzamide], the EC50 in data set [1] (setting [5]), in data set [1] (setting [6]), in data set [2] (setting [7]), in data set [2] (setting [8]), in data set [3] (setting [9]) and in data set [3] (setting [10]) was > 100 µM in each case. The same molecule showed a CC50 in data set [4] of 13 µM.

As to `CCCC1CCC2(CC1)SC(C)C(=O)N2NC(=O)c1ccc(C(C)(C)C)cc1` (stereo not drawn) [Compound 2e, 4‐(tert‐Butyl)‐N‐(2‐methyl‐3‐oxo‐8‐propyl‐1‐thia‐4‐azaspiro[4.5]decan‐4‐yl)benzamide], the EC50 in data set [1] (setting [5]), in data set [1] (setting [6]), in data set [2] (setting [7]), in data set [2] (setting [8]), in data set [3] (setting [9]) and in data set [3] (setting [10]) was > 100 µM throughout. This molecule showed a CC50 in data set [4] of 14 µM.

For `CC1SC2(CCC(C(C)(C)C)CC2)N(NC(=O)c2ccc(C(C)(C)C)cc2)C1=O` (stereo not drawn) [Compound 2f, 4‐(tert‐Butyl)‐N‐(8‐(tert‐butyl)‐2‐methyl‐3‐oxo‐1‐thia‐4‐azaspiro[4.5]decan‐4‐yl)benzamide], the EC50 in data set [1] (setting [5]), in data set [1] (setting [6]), in data set [2] (setting [7]), in data set [2] (setting [8]), in data set [3] (setting [9]) and in data set [3] (setting [10]) was > 100 µM in each case. For the same molecule, in data set [4], the CC50 was > 100 µM.

As for `CCC(CC)O[C@@H]1C=C(C(=O)O)C[C@H](N)[C@H]1NC(C)=O` [Oseltamivir carboxylate, reference compound], the EC50 in data set [1] (setting [5]) turned out to be 0.5 µM; in data set [1] (setting [6]), 0.4 µM; in data set [2] (setting [7]), 0.8 µM; in data set [2] (setting [8]) it was 0.4 µM; in data set [3] (setting [9]), 0.8 µM; in data set [3] (setting [10]) it was 0.6 µM. In data set [4], the CC50 was > 100 µM.

Take `NC(=O)c1ncn([C@@H]2O[C@H](CO)[C@@H](O)[C@H]2O)n1` [Ribavirin, reference compound]: the EC50 came out at 8.9 µM in data set [1] (setting [5]); 7.1 µM in data set [1] (setting [6]); 6.8 µM in data set [2] (setting [7]); 1.3 µM in data set [2] (setting [8]); 9 µM in data set [3] (setting [9]); 5.3 µM in data set [3] (setting [10]). Moreover, the CC50 in data set [4] was > 100 µM.

For the molecule `CC(N)C12CC3CC(CC(C3)C1)C2` (stereo not drawn) [Rimantadine, reference compound], the EC50 was 8 µM in data set [1] (setting [5]); 8.7 µM in data set [1] (setting [6]); 0.7 µM in data set [2] (setting [7]); 0.8 µM in data set [2] (setting [8]); > 200 µM in data set [3] (setting [9]); > 200 µM in data set [3] (setting [10]). Besides, in data set [4], the CC50 was > 200 µM.

The record behind these values is publication PMC11931604 (Drug Development Research, 2025).
